The nature of assay [1]: Luminescence-based cell-based high throughput dose response assay to identify activators of the DAF-12 from the parasite S. stercoralis (ssDAF-12). Type of assay: functional.
Assay [2] addresses T1, Oxysterols receptor LXR-beta (Homo sapiens, UniProt P55055).
T1 sequence (P55055 whole entry): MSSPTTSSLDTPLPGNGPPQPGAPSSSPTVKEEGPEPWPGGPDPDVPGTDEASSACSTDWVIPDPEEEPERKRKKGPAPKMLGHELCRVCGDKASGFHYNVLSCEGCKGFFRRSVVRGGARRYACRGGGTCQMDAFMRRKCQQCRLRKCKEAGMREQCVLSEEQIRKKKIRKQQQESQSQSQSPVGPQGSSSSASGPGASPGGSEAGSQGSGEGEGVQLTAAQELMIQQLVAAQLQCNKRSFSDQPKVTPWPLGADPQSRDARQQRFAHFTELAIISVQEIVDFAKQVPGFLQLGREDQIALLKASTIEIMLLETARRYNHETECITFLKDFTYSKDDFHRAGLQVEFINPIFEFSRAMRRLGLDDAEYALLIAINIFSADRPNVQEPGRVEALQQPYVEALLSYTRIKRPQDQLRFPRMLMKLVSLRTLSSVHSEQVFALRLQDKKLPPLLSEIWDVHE
Kind of assay: LXR agonists, Gal4 luciferase reporter, dose response, counter-screen for ssDAF-12 agonist project, cell-based, luminescence, HEK293, S. stercoralis campaign (AID 720737). Type of assay: functional. The note with it: read-out: IC50 (the source's name).

Assay [3] in a line: A cytotoxicity screen of small molecule inhibitors of the PhoP region in Salmonella typhi identified in the primary screen. [Related pubchem assays: 1850, 1864, 1985 ]. The class given is functional.
For assay [4], the target named is T2, Estrogen receptor beta (Homo sapiens, UniProt Q92731).
T2 sequence (Q92731 whole entry): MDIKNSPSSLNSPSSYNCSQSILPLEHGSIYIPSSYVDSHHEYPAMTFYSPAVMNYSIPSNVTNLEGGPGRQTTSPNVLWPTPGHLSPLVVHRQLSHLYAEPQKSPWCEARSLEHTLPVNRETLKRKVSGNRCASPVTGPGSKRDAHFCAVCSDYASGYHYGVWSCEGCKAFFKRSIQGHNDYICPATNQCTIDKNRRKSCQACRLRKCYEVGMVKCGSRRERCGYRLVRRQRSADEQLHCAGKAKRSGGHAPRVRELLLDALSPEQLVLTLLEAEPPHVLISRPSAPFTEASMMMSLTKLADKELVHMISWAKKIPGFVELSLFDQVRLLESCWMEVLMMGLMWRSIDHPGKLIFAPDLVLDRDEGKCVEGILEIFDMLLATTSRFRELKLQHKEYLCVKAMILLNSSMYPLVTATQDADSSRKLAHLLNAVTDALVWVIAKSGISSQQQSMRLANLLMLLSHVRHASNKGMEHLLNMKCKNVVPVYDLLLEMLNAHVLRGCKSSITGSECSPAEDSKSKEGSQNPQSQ
Assay [5] concerns the target T2, Estrogen receptor beta. Kind of assay: ERβ–SRC-3 coactivator interaction inhibitors, confirmation, orthogonal assay, biochemical, ELISA, streptavidin-HRP readout (AID 1060).
Assay [6] can be described thus: inhibitors of intracellular T. cruzi replication, confirmation, NIH3T3 host cells, beta-gal luminescence (AID 2044).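 Further: intracellular parasites grown in NIH/3T3 mouse fibroblasts as host cells; luminescent beta-galactosidase reporter signal from transgenic T. cruzi replicating inside host cells; inhibitors lower the luminescence signal.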 The class given is functional, cell-based.
The nature of assay [7]: cytotoxicity toward NIH3T3 fibroblasts, dose response, counter-screen, cell-based, ATP luminescence, mouse fibroblasts (AID 2010).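 Further: cells exposed to compound for about 90 hours before reading.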 The class given is functional.
Another assay concerns the target Nonstructural protein 1 (Influenza A virus, UniProt Q194T2). Type of assay: functional, Influenza A virus (A/California/07/2009(H1N1)).
The nature of assay [8]: cells.
The target in assay [9] is NAD-dependent protein deacylase sirtuin-5, mitochondrial (Homo sapiens, UniProt Q9NXA8). Kind of assay: SIRT5 desuccinylase inhibitors, dose response, biochemical, fluorescence imaging, cherry-pick, set 5 (AID 720591).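 Further: desuccinylation of succinyl peptide AMC substrate read as fluorescence after trypsin release; potency of inhibitors that lower fluorescence and may act on trypsin instead.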
Chain of NAD-dependent protein deacylase sirtuin-5, mitochondrial (Q9NXA8 whole entry): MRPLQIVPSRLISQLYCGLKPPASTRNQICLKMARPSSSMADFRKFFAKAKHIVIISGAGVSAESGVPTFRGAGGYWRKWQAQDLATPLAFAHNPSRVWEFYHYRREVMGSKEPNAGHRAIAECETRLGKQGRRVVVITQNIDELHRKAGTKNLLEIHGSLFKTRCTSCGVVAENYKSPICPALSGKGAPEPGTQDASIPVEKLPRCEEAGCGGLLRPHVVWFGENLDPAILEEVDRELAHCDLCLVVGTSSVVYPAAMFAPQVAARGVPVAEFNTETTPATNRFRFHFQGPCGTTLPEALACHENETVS
Assay [10] in a line: P. falciparum late gametocyte killing, dose response, luminescence (AID 1117278).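 Further: gametocytes exposed to compound for 24 hours.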 Type of assay: functional, cell-based.
The nature of assay [11]: Jurkat T cell cytotoxicity, dose response, cytotoxicity control for P. falciparum gametocyte viability project, luminescence (AID 1117277).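 Further: potency reflects loss of cellular ATP meaning fewer viable cells.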 The class given is functional, cell-based.
Assay [12] addresses T3, Calpain-2 catalytic subunit (Sus scrofa, UniProt P43367).
T3 sequence (P43367 whole entry): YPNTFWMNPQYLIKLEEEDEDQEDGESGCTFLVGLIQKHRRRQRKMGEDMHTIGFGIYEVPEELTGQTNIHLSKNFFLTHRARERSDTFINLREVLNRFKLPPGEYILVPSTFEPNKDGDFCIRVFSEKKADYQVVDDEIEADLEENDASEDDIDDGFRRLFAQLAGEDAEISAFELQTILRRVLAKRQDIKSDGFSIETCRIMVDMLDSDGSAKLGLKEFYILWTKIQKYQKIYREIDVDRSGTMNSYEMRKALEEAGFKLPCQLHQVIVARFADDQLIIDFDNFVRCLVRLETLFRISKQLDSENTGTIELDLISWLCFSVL
The assay can be described thus: pig calpain II inhibitor potency, dose response, biochemical, fluorogenic peptide substrate (AID 1420). Type of assay: functional.

A short description of assay [13]: inhibitors of PGC1a acetylation in cells, dose response, cell-based, cherry-picked samples (AID 720514).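 Further: potency may reflect raised or lowered acetylation signal.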 The class given is functional.
Assay [14] has as its system Streptococcus sp. 'group A'. Kind of assay: growth inhibition of control SK(-) GAS strain, dose response, counter-screen for streptokinase expression inhibitor project, luminescence, kanamycin, BacTiterGlo, confirmation (AID 1900). The class given is functional, organism-based.
In a further assay the target is T4, Streptokinase A (Streptococcus pyogenes serotype M1, UniProt P10520).
T4 sequence (P10520 whole entry): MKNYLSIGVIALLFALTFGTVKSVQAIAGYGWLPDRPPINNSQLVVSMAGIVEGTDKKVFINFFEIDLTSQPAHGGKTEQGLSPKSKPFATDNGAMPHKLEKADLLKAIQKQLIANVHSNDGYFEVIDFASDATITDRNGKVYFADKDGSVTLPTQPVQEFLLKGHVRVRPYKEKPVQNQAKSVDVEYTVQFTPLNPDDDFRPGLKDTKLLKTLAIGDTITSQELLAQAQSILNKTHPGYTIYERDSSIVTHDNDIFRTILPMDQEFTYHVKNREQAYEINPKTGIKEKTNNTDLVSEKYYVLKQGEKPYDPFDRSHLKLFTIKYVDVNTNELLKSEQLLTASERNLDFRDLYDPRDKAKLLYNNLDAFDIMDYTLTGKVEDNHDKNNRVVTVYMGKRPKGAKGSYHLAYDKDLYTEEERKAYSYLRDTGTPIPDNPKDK
Kind of assay: S. pyogenes streptokinase expression inhibitors, potency, dose response, plasminogen activation absorbance, OD405 (AID 1914).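 Further: secreted streptokinase activity via plasminogen activation per viability signal from cell pellet.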 Type of assay: functional, Streptococcus pyogenes M1 GAS.

A further assay has as its system Streptococcus. Kind of assay: Group A Streptococcus viability loss, dose response, counter-screen for streptokinase expression inhibitor project, luminescence, BacTiterGlo (AID 1915).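 Further: potency for reduction of bacterial viability or growth.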 The class given is functional, organism-based.
In assay [15] the target is Neurotensin receptor type 1 (Homo sapiens, UniProt P30989). The class given is functional.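 Further: Image-based confirmatory dose-response assay measuring agonist activity at NTR1; NTR1-expressing U2OS osteosarcoma cells imaged for beta-arrestin GFP spot formation; agonist potency where compounds increase beta-arrestin recruitment.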
Chain of Neurotensin receptor type 1 (P30989 whole entry): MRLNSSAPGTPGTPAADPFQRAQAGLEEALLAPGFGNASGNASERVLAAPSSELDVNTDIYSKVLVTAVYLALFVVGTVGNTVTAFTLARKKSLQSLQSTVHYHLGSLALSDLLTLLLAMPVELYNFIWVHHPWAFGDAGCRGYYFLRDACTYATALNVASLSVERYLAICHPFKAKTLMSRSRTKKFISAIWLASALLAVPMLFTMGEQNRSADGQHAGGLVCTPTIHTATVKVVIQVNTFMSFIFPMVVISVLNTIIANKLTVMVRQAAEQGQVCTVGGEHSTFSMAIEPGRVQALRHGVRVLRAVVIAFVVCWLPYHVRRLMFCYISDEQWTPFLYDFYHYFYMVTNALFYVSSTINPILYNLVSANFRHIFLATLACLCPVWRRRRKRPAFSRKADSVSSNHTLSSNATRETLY
For a further assay, the target named is Cytochrome P450 2C19 (Homo sapiens, UniProt P33261). Kind of assay: Cytochrome panel assay with activity outcomes. Panel member name: p450-cyp2c19 Compounds with AC50 equal or less than 10 uM are considered active. The class given is functional. The following applies: read-out: AC50.
Chain of Cytochrome P450 2C19 (P33261 whole entry): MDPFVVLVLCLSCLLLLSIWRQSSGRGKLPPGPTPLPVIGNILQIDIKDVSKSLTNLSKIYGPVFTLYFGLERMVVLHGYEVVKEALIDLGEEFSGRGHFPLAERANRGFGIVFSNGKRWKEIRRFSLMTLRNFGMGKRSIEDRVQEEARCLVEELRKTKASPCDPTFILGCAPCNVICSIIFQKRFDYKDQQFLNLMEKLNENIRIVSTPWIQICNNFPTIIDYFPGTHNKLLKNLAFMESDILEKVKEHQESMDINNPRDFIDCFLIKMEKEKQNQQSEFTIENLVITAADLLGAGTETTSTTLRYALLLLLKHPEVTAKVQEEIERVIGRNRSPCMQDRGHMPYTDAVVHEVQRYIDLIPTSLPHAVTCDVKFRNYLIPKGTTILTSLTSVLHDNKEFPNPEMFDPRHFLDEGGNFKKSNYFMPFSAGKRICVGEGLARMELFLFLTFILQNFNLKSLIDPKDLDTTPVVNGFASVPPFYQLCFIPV
Another assay has as its target Cytochrome P450 2C9 (Homo sapiens, UniProt P11712).
Assay [16] deals with T5, Polyadenylate-binding protein 1 (Homo sapiens, UniProt P11940). The assay can be described thus: PABP1 MLLE–PAM2 interaction inhibitors, dose response, miRNA deadenylation inhibitor project, biochemical, fluorescence polarization, Cy5-PAM2 peptide, secondary (AID 602260). The class given is functional. The following applies: read-out: IC50_Mean.
T5 sequence (P11940 whole entry): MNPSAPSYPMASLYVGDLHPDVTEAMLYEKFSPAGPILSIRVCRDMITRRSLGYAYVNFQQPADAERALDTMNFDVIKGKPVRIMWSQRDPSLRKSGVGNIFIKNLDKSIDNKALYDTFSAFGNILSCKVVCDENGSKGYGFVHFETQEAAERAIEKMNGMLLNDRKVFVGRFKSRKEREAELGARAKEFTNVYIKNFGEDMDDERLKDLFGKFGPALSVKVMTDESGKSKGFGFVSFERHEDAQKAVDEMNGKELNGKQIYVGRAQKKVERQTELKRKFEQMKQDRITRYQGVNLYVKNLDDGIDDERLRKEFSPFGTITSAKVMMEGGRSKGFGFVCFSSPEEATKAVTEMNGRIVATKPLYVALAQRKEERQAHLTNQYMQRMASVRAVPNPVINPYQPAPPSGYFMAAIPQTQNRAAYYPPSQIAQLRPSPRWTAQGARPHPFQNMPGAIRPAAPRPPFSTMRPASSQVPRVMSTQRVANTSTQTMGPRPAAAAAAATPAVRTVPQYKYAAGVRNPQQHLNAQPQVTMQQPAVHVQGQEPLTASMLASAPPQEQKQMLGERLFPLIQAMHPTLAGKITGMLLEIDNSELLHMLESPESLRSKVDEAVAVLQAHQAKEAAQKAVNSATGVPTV
Assay [17] concerns the target T5, Polyadenylate-binding protein 1. The assay can be described thus: PABP1 MLLE–PAM2 binding inhibitor potency, dose response, biochemical, fluorescence polarization, FITC-PAM2 peptide (AID 602259). The following applies: read-out: IC50_Mean. Type of assay: functional.
Assay [18] deals with T1, Oxysterols receptor LXR-beta. Type of assay: functional, cell-based.
A short description of assay [19]: cells. The source holds these as a separate data set.
The target of assay [20] is T6, Microphthalmia-associated transcription factor (Homo sapiens, UniProt O75030).
T6 sequence (O75030 whole entry): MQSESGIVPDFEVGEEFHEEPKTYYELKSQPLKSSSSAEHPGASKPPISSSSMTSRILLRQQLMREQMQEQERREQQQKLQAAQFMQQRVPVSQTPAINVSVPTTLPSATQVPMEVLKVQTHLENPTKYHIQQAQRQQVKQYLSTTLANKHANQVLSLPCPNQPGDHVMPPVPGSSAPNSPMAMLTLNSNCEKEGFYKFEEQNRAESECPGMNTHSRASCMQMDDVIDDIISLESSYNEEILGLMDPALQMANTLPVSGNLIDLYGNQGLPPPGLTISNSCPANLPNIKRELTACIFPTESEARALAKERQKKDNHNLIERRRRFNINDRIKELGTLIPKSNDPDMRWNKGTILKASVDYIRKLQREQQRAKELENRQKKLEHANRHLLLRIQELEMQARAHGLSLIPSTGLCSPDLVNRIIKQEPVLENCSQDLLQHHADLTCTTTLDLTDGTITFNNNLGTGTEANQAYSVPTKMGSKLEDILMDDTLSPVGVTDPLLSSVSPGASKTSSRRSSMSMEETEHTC
The assay can be described thus: TRPM1 promoter luciferase signal decrease, dose response, MITF inhibitor project, cell-based, SK-MEL-5, cherry-picked, set 3 (AID 493073).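 Further: SK-MEL-5 melanoma cells with luciferase driven by the MITF target TRPM1 promoter.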 Type of assay: functional.

We go through 28 compounds from ChEMBL document CHEMBL1201862, “PubChem BioAssay data set” (2004).

Activity calls are given as the source filed them.

Chain of Cytochrome P450 2C9 (P11712 whole entry): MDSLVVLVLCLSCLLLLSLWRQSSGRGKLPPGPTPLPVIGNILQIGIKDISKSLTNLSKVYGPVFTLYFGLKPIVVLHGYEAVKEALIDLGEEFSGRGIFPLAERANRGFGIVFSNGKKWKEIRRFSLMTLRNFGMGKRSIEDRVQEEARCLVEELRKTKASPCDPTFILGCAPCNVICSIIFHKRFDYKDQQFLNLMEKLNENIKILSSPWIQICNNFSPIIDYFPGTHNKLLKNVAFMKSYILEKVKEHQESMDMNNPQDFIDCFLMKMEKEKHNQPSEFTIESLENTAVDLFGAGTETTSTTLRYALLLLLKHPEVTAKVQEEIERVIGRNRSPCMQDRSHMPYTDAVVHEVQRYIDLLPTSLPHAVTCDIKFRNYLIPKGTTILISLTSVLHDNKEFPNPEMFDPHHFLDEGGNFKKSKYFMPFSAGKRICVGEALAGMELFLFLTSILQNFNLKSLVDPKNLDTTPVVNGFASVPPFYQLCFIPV
Chain of Nonstructural protein 1 (Q194T2 whole entry): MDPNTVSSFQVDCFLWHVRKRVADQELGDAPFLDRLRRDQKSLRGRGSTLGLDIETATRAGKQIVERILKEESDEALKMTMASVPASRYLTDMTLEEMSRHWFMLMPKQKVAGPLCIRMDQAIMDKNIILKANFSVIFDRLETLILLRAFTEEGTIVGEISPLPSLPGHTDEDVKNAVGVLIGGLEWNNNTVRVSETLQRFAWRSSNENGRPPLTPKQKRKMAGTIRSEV

In the case of `Cc1ccc(N/C=C/C(=O)c2ccccc2)cc1Br`, the IC50 in assay [1] was > 67.6 µM (inactive). Besides, the EC50 in assay [2] was > 67.6 µM (inactive).

For the compound `CC(C)NC1=NN=C(c2ccc(F)cc2)CS1`, the EC50 in assay [3] is > 50 µM (active).

In the case of `Cc1noc(C)c1S(=O)(=O)N(CC(=O)O)c1ccc2c(c1)OCO2`, the IC50 at Estrogen receptor beta [4] was 9.71 µM (active); against Estrogen receptor beta [5], 0.084 µM (not active).

Consider `O=C(Cc1cccs1)Nc1ccc(S(=O)(=O)Nc2ncccn2)cc1`, for which the IC50 was < 1.56 µM (active) on Estrogen receptor beta [4] and 0.0699 µM (not active) at Estrogen receptor beta [5].

`Cc1c(C)n(Cc2ccccc2)c2ccc(C(=O)OCCCN(C)C)cc12`: the EC50 in assay [6] was < 0.1 µM (active); in assay [7] it was > 30 µM (not active); in “cells [8]”, 0.153 µM (active). In addition, at Nonstructural protein 1, the IC50 is 43.7 µM (active).

For the compound `CCOC(=O)c1c(NC(=O)Cn2cnc([N+](=O)[O-])n2)sc2c1CCCC2`, the EC50 in [6] is < 0.1 µM (active); in assay [7] it was > 60 µM (not active); in the assay “cells [8]”, 0.121 µM (active).

Regarding `NC(=O)c1ccc(C(F)(F)F)cn1`, the AC50 in [9] is > 30 µM (inactive).

Consider `CC(=O)Nc1ccccc1-c1nc2ccc(C(=O)N3CCN(c4cc(C)ccc4C)CC3)cc2nc1O`, for which the EC50 in assay [3] is > 50 µM (active).

As to `CCc1ccc(-c2ccc(C(=O)O)c(C)n2)cc1`, the IC50 in [10] is > 109 µM (inactive); in [11] it was > 83.2 µM (inactive).

For the compound `CCc1sc(C(=O)N2CCc3ccccc32)cc1C`, the IC50 was 9.39 µM (not active) in assay [12] and > 67.5 µM (inactive) in assay [1]. Besides, in assay [2], the EC50 is > 67.5 µM (inactive).

`Cc1ccc(S(=O)(=O)Nc2ccccc2C(=O)NCc2cccnc2)cc1`: the AC50 in assay [13] was 25.6 µM (active).

Turning to `Cc1cc(C)n(-c2nc(Nc3ccccc3C)nc(-n3nc(C)cc3C)n2)n1`, the EC50 in assay [14] is 8.77 µM (active); at Streptokinase A it was > 150 µM (not active); in assay [6], 1.07 µM (active); in assay [7] it was > 60 µM (inconclusive); in the assay on Streptococcus it was 23.2 µM (active); in assay [15], 7.86 µM (active). Also, the AC50 at Cytochrome P450 2C19 was 39.8 µM (inconclusive); at Cytochrome P450 2C9, 15.8 µM (inconclusive).

For `Cc1cc(C)c(NC(=O)CSc2nc3cc(Br)c[nH]c-3n2)c(C)c1`, in assay [9], the AC50 is > 30 µM (inactive).

On to `Cn1c(CNc2ccc(F)cc2)nc2ccccc21`, for which the IC50 in [1] is > 67.5 µM (inactive). The EC50 in assay [2] was > 67.5 µM (inactive).

As to `O=C1CCCC(=O)C1CS(=O)(=O)c1ccccc1`, the IC50 was > 66 µM (inactive) in assay [16], > 66 µM (inactive) in assay [17], > 109 µM (inactive) in assay [10] and > 83.2 µM (inactive) in assay [11].

For `c1ccc(-c2ccc(-c3ccccn3)s2)nc1`, the IC50 in assay [1] was > 67.6 µM (inactive). Besides, the EC50 in assay [2] is > 67.6 µM (inactive); in assay [18], > 67.5 µM (inactive); in the assay “cells [19]” it was > 67.5 µM (inactive).

In the case of `CC(C)CC(c1nnnn1Cc1ccco1)N1CCN(c2cccc(Cl)c2)CC1` (stereo not given), in assay [3], the EC50 is > 50 µM (active).

As to `NC(=O)CC(NC(=O)c1ccccc1)c1ccc(NCC2CC2)c([N+](=O)[O-])c1` (stereo not given), the IC50 was > 109 µM (inactive) in assay [10] and > 83.3 µM (inactive) in assay [11].

For the compound `CCOC(=O)c1c(NS(=O)(=O)c2cccc(OC)c2)sc2c1CCC2`, the IC50 is > 109 µM (inactive) in assay [10] and > 83.3 µM (inactive) in [11].

`CN(CC(=O)Nc1ccc2c(c1)CCC2)CC(=O)Nc1ccccc1Br`: the IC50 in assay [10] was > 109 µM (inactive); in assay [11], > 83.3 µM (inactive).

With `CC1C(=O)N2CCCc3cc(S(=O)(=O)NCCc4ccccc4)cc1c32` (stereo not given), the AC50 in assay [9] was > 30 µM (inactive).

Regarding `COC(=O)c1ccccc1N(C)S(=O)(=O)c1cc2c(cc1C)OCC(=O)N2`, the AC50 in assay [13] was 24.1 µM (active).

In the case of `CCc1ccc(NS(=O)(=O)c2c(C)noc2C)cc1`, the AC50 in [9] is > 30 µM (inactive).

In the case of `C/C(=N\Nc1ccc(C)c(Cl)c1)c1cccnc1`, the EC50 in [3] was > 50 µM (active).

`O=C(N/N=C/c1ccc(-c2ccccc2Cl)o1)c1ccccc1`: the EC50 in [6] was < 0.1 µM (active); in assay [7], > 60 µM (not active); in “cells [8]”, 0.035 µM (active).

Turning to `CO[C@H]1CN(C)C(=O)c2cc(NC(=O)NC(C)C)ccc2OC[C@H](C)N(Cc2ccc(-c3ccccn3)cc2)C[C@@H]1C`, the AC50 in assay [13] was 22.6 µM (active).

`O=C(N/N=C/c1ccc(N2CCOCC2)cc1)c1ccc(O)cc1`: in assay [3], the EC50 is > 50 µM (active).

Take `Clc1cccc(-c2nc(-c3ccccn3)no2)c1`: the AC50 in assay [20] is 5.92 µM (active). For the same compound, the EC50 (in assay [18]; in the assay “cells [19]”) was > 67.5 µM (inactive) in each case.
